Holding throughout (assay): NCI-60 cell line screen, 48 h
Assay [1] has as its system HCT-116 colon.
The subject of assay [2] is MDA-MB-435.
Assay [3] relates to KM12 colon.
Assay [4] relates to SF-268 CNS.
Assay [5] has as its system HOP-62 NSCLC.
The test system of assay [6] is SR leukemia.
The test system of assay [7] is MCF7 breast.
Assay [8] has as its system CAKI-1 renal.
The subject of assay [9] is 786-0 renal.
Assay [10] relates to UACC-257 melanoma.

The results in this text go back to PubChem BioAssay (NCI).

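Five concentrations, 48 hours, 96-well plates. GI50: concentration for 50% inhibition of growth. At the TGI there is no net growth.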

As for `CCN1CCCCCCCCCC(=N/O)/C(=N\O)C1`, the TGI in [1], in assay [2], in assay [3], in assay [4], in [5] and in [6] was more than 100 µM throughout. In addition, the TGI in assay [7], in assay [8], in assay [9] and in assay [10] was more than 100 µM throughout.
For the compound `O=C(CC(O)(C(F)(F)F)C(F)(F)F)c1cccs1`, the TGI in assay [1], in [2], in assay [3], in assay [4], in assay [5] and in [6] was more than 10 µM each time. In addition, the TGI in [7], in assay [8], in [9] and in assay [10] was more than 10 µM throughout.
`CC(=O)NC(CCc1ccc(Cl)c(Cl)c1)c1cccc(O)c(=O)c1` (stereo not given): the GI50 in assay [1] was 0.315 µM; in assay [2], 1.07 µM; in [3] it was 0.825 µM; in assay [4], 0.517 µM; in assay [5], 0.393 µM; in assay [6] it was 0.622 µM. The GI50 in assay [7] is 0.412 µM; in assay [8], 0.195 µM; in assay [9], 0.591 µM; in [10] it was 0.649 µM. In addition, the TGI in assay [1] came to 15.2 µM; in assay [2], 18.9 µM; in assay [3], 17.8 µM; in [4], 14.7 µM; in assay [5], 12.2 µM; in [6] it was 31.1 µM. Further, the TGI in [7] was 37.4 µM; in assay [8], 11.9 µM; in assay [9], 12 µM; in assay [10], 4.4 µM.
As to `N=C1C(c2nc3ccccc3c(=O)[nH]2)=C(O)CN1c1cccc(Cl)c1`, the GI50 in assay [1] was 2.79 µM; in [2] it was 0.948 µM; in assay [3] it was 2.01 µM; in [4], 8.78 µM; in [5], 4.7 µM; in [6] it was 0.302 µM. The GI50 was 4.19 µM in assay [7], 3.11 µM in assay [8], 4.05 µM in assay [9] and more than 100 µM in assay [10]. The TGI in assay [1] is more than 100 µM; in assay [2], 3.8 µM; in assay [3], more than 100 µM; in assay [4], more than 100 µM; in [5], more than 100 µM; in assay [6] it was 2.68 µM. Also, the TGI in [7] is more than 100 µM; in assay [8], more than 29.3 µM; in [9], more than 100 µM; in assay [10], more than 100 µM.
`Nc1ncc(-c2ccc3ncnc(N4CCc5cc(F)c(Cl)cc54)c3c2)cc1C=O`: the GI50 in assay [1] is 2.29 µM; in [2], 0.909 µM; in assay [3] it was 2.86 µM; in assay [4], 1.02 µM; in assay [5], 0.896 µM; in assay [6] it was 2.67 µM. The GI50 is 1.7 µM in assay [7], 0.845 µM in assay [8], 0.658 µM in assay [9] and 1.64 µM in assay [10]. Besides, the TGI in assay [1] is more than 100 µM; in [2] it was 6.97 µM; in assay [3], more than 100 µM; in assay [4], more than 100 µM; in [5] it was more than 100 µM; in assay [6], more than 26 µM. For the same compound, the TGI was more than 100 µM in assay [7], more than 26.2 µM in [8], more than 100 µM in [9] and more than 100 µM in assay [10].
Consider `Cn1ccc(S(=O)(=O)N2CCC[C@H](Nc3nccc(-c4c(-c5cccc(O)c5)nc5occn45)n3)C2)n1`, for which the GI50 in [1] is 3.93 µM; in [2], 0.329 µM; in assay [3], 18.3 µM; in assay [4] it was 21.4 µM; in assay [5], 31 µM; in assay [6], 8.19 µM. The GI50 in assay [7] is 12.8 µM; in assay [8], 18 µM; in [9], 20.1 µM; in assay [10], 0.224 µM. The TGI in assay [1] was 32.4 µM; in [2] it was 29.3 µM; in assay [3], more than 86.9 µM; in [4], more than 100 µM; in assay [5] it was more than 100 µM; in [6], 46.2 µM. Also, the TGI in [7] was 55.3 µM; in assay [8], 78.1 µM; in assay [9], more than 100 µM; in [10], 90.7 µM.
On to `Cc1c(Br)c(Br)c2c3c1nc(N1CCNCC1)n3CCC2`, for which the GI50 in assay [1] is 1.73 µM; in assay [2], 1.73 µM; in assay [3], 1.72 µM; in assay [4] it was 2.12 µM; in assay [5], 1.87 µM; in [6] it was 1.6 µM. Also, the GI50 in assay [7] is 1.75 µM; in [8] it was 1.45 µM; in assay [9], 2.63 µM; in [10], 2.13 µM. Also, the TGI worked out at 3.19 µM in [1]; 3.22 µM in assay [2]; 3.2 µM in assay [3]; 4.78 µM in [4]; 4.87 µM in assay [5]; 5.24 µM in assay [6]. For the same compound, the TGI is 3.49 µM in [7], 3.05 µM in [8], 7.33 µM in assay [9] and 4.2 µM in assay [10].
In the case of `CN(C)C/C=C/C(=O)Nc1ccc(C(=O)Nc2cccc(Nc3ncc(Cl)c(-c4c[nH]c5ccccc45)n3)c2)cc1`, the GI50 in assay [1] was less than 0.0131 µM; in assay [2] it was 0.0352 µM; in assay [3], 0.0747 µM; in assay [5], 0.0697 µM; in assay [6], 0.017 µM; in assay [7] it was less than 0.0116 µM. For the same compound, the GI50 in assay [8] was 0.0607 µM; in assay [9], 0.0441 µM; in assay [10], 0.0216 µM. Further, the TGI in assay [2] was 0.274 µM; in [3], 0.232 µM; in assay [5], more than 100 µM; in assay [6], more than 100 µM; in [8] it was 0.686 µM; in [10], more than 100 µM.
Turning to `O=C1NC(c2cccc3ccccc23)Nc2ccc(Cl)cc21` (stereo not given), the TGI in [1] is 12.1 µM; in [2], 0.000257 µM; in [3], 0.803 µM; in assay [4] it was 23.3 µM; in assay [5], 11.9 µM; in [6], 0.000654 µM. Moreover, the TGI in assay [7] was more than 100 µM; in [8], 11.2 µM; in [9] it was 23.1 µM. Further, the GI50 is 0.0129 µM in assay [7] and 0.0109 µM in [8].
In the case of `NC(=O)NC(=O)Nc1ccc(Br)cc1`, the TGI in assay [1] was more than 49.6 µM; in assay [2], more than 22 µM; in [3], more than 32.8 µM; in assay [4], more than 16.5 µM; in [5], more than 30.8 µM; in [6] it was more than 100 µM. The TGI in assay [7] was more than 100 µM; in assay [8], more than 35.1 µM; in assay [9], more than 100 µM; in assay [10] it was more than 100 µM.
Turning to `Cn1cc(Nc2nccc(-c3ccc4c(c3)CN(C3COC3)CC[C@H]4NC(=O)c3cn(C(C)(C)C)nn3)n2)cn1`, the GI50 in [1] is 73.6 µM; in [2], 42.3 µM; in assay [3] it was 72.6 µM; in assay [4], more than 100 µM; in assay [5], more than 100 µM; in assay [6] it was more than 100 µM. Further, the GI50 was 41.4 µM in [7], 37.7 µM in assay [8], 50.5 µM in [9] and more than 100 µM in assay [10]. For the same compound, the TGI in assay [1], in assay [2], in [3], in [4], in assay [5] and in [6] was more than 100 µM in each case. Besides, the TGI in assay [7], in [8], in assay [9] and in [10] was more than 100 µM in each case.
As for `N#Cc1c(-c2ccccc2)nc(SCC(O)CN2CCOCC2)nc1N1CCOCC1` (stereo not given), the GI50 in [1] is 32.4 µM; in assay [2], 19.6 µM; in assay [3], 30.2 µM; in assay [4] it was 17.8 µM; in [5], 29 µM; in assay [6], 32.2 µM. Moreover, the GI50 in assay [7] is 0.098 µM; in assay [8] it was 1.67 µM; in assay [9], 14.8 µM; in assay [10], 2.88 µM. In addition, the TGI in assay [1], in [2], in assay [3], in assay [4], in assay [5] and in assay [6] was more than 100 µM each time. Moreover, the TGI was 8.51 µM in assay [7], more than 100 µM in [9] and 45.7 µM in [10].
For the compound `CCN(CC)Cc1cc(Nc2ccnc3ccc(OC)cc23)ccc1O`, the GI50 in [1] was 2.62 µM; in [2], 3.08 µM; in assay [3], 3.21 µM; in assay [4], 3.61 µM; in [5], 3.8 µM; in assay [6], 2.85 µM. Also, the GI50 in assay [7] was 2.71 µM; in assay [8], 1.48 µM; in [9] it was 4.67 µM. The TGI in assay [1] was determined as 15 µM; in assay [2], 12.3 µM; in [3], 16 µM; in [4], 19.8 µM; in assay [5] it was 18.4 µM; in [6], 7.77 µM. For the same compound, the TGI in assay [7] stood at 9.62 µM; in assay [8], 4.1 µM; in assay [9], 18.8 µM.
Take `CCN(CC)CCOc1ccc(/C(=C(\C)Cc2ccc(OC)cc2)c2ccc(O)cc2)cc1`: the GI50 is 1.68 µM in assay [2]; 1.8 µM in assay [3]; 1.86 µM in assay [4]; 1.89 µM in assay [5]; 1.39 µM in [6]; 0.145 µM in [7]. Also, the GI50 is 1.65 µM in assay [8], 1.59 µM in assay [9] and 1.89 µM in [10]. The TGI in [2] is 3.15 µM; in assay [3] it was 3.76 µM; in assay [4] it was 4.33 µM; in assay [5], 3.81 µM; in assay [6], 3.62 µM; in assay [7], 2.3 µM. The TGI in assay [8] came to 3.21 µM; in assay [9], 3 µM; in [10], 3.81 µM.
Regarding `CCCCNC(=O)CC1=C(C)/C(=C/c2[nH]c(-c3ccc[nH]3)cc2OC)N=C1C`, the GI50 in assay [2] is 2.87 µM; in assay [3], 1.8 µM; in assay [4] it was 2.66 µM; in [5], 2.5 µM; in assay [6], 1.87 µM; in assay [7], 2.7 µM. Moreover, the GI50 in [8] is 2.56 µM; in assay [9], 2.04 µM; in assay [10], 2.26 µM. Also, the TGI is 9.71 µM in [2]; 10.6 µM in [3]; 15 µM in [4]; 9.76 µM in assay [5]; 5.43 µM in assay [6]; 9.39 µM in assay [7]. Further, the TGI was found to be 9.3 µM in assay [8], 4.64 µM in assay [9] and 4.54 µM in [10].
For the compound `COc1cc(C2C=C(C)N=C3SC=C(C)N32)cc(OC)c1OC` (stereo not given), the GI50 is 0.171 µM in assay [1]; 0.631 µM in [2]; 1.33 µM in assay [3]; 1.4 µM in assay [4]; 2.08 µM in [5]; 0.249 µM in assay [6]. The GI50 in assay [7] was 0.333 µM; in assay [9], 0.827 µM; in assay [10] it was 1.77 µM. Also, the TGI in assay [1] was 0.336 µM; in assay [2], 6.45 µM; in assay [3] it was 4.55 µM; in assay [4], 11.4 µM; in [5], 4.53 µM; in [6] it was more than 100 µM. The TGI in [7] was found to be 11.9 µM; in assay [9], 2.67 µM; in assay [10], 4.89 µM.
As to `COC(=O)COc1ccccc1/C=C1/N=C(c2ccccc2)N(c2c(C)n(C)n(-c3ccccc3)c2=O)C1=O`, the GI50 is more than 100 µM in assay [1]; more than 100 µM in [2]; 79.6 µM in assay [3]; more than 100 µM in assay [4]; more than 100 µM in [5]; 31.7 µM in assay [6]. Moreover, the GI50 in [7] was 43.4 µM; in assay [8], more than 100 µM; in [9] it was more than 100 µM. The TGI in assay [1], in assay [2], in assay [3], in [4], in assay [5] and in assay [6] was more than 100 µM each time. The TGI in assay [7], in assay [8] and in [9] was more than 100 µM each time.
